{"source": "patent US8017143B2", "about": "“Coating agent for drug releasing stent, preparation method thereof and drug releasing stent coated therewith” (Taewoong Medical Co., Ltd, priority 2007, dated 2011)", "origin": "cited, not measured here", "conditions": "esophageal, prostate, rectal, bladder cancer, hepatic, central nervous system and brain tumors", "data": [{"smiles": "CC(=O)O[C@H]1C(=O)[C@@]2(C)[C@H]([C@H](OC(=O)c3ccccc3)[C@]3(O)C[C@H](OC(=O)[C@H](O)[C@@H](NC(=O)c4ccccc4)c4ccccc4)C(C)=C1C3(C)C)[C@]1(OC(C)=O)CO[C@@H]1C[C@@H]2O", "note": "[taxol]", "values": [{"measurement": "therapeutic effects", "result": "excellent therapeutic effects"}]}]}
